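Test compounds were applied to cells in 96-well plates for 48 hours at 5 doses. Abbreviation: GI50, concentration required for 50% inhibition of growth. TGI: concentration producing complete growth inhibition.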
How the values were obtained:
Test in all cases: DTP human tumour cell line panel, 48 h
[1] = tested on: OVCAR-5 ovarian
[2] = tested on: ACHN renal
[3] = tested on: IGROV1 ovarian
[4] = tested on: SR leukemia
[5] = tested on: SF-268 CNS
[6] = tested on: HCC-2998 colon
[7] = tested on: HCT-116 colon
[8] = tested on: HOP-62 NSCLC
[9] = tested on: LOX IMVI melanoma
[10] = tested on: SK-MEL-2 melanoma

| Compound | TGI [1] | TGI [2] | TGI [3] | TGI [4] | TGI [5] | TGI [6] | TGI [7] | TGI [8] | TGI [9] | TGI [10] | GI50 [1] | GI50 [10] | GI50 [2] | GI50 [3] | GI50 [4] | GI50 [5] | GI50 [6] | GI50 [7] | GI50 [8] | GI50 [9] |
| --- | --- | --- | --- | --- | --- | --- | --- | --- | --- | --- | --- | --- | --- | --- | --- | --- | --- | --- | --- | --- |
| CC1=C2C(O)C(C(C)CO)C(O)CC2(C)C(O)CC1 (centres undefined) | > 100 µM | > 100 µM | > 100 µM | > 100 µM | > 100 µM | > 100 µM | > 100 µM | > 100 µM | > 100 µM |  |  |  |  |  |  |  |  |  |  |  |
| Cc1cc2nc3c(=O)n(C)c(=O)nc-3n(-c3ccc(Cl)cc3)c2cc1C | 32.6 µM | 24.7 µM | 38.8 µM |  | 36.7 µM | 20.4 µM | 33.6 µM | 65.1 µM |  | 34.9 µM |  |  |  |  |  |  |  |  |  |  |
| CN1CCN(Cc2ccc(NC(=O)c3cncc(C#Cc4cnc(N)c5ccc(F)cc45)c3)cc2C(F)(F)F)CC1 | 7.51 µM | 4.36 µM | 4.08 µM | 33.3 µM | 8.92 µM | 5.98 µM | 5.04 µM | 7.24 µM | 4.27 µM | 2.39 µM | 3.52 µM | 0.808 µM | 1.02 µM | 0.677 µM | 1.25 µM | 1.79 µM | 1.7 µM | 1 µM | 2.89 µM | 1.01 µM |
| O=C1C=C(c2c(O)ccc3ccccc23)c2ccccc2C1=O | 25 µM | 11.7 µM | 9.01 µM |  | 17.2 µM | 26.5 µM | 8.06 µM | 33.5 µM | 4.42 µM | 15.8 µM |  |  |  |  |  |  |  |  |  |  |
| CC(=O)O/N=C/c1ncccc1CO | > 100 µM | > 100 µM | > 100 µM | > 100 µM | > 100 µM |  | > 100 µM | > 100 µM | > 100 µM | > 100 µM |  |  |  |  |  |  |  |  |  |  |
| CCN(CC)c1ccc(N=Nc2ccc(-c3nc4cccnc4o3)cc2)cc1 | > 100 µM | > 100 µM | > 100 µM |  | > 100 µM | > 100 µM | > 100 µM | > 100 µM | > 100 µM | > 100 µM |  |  |  |  |  |  |  |  |  |  |
| COc1ccc(/C=C/c2cc(OC)c(OC)c(OC)c2)cc1NC(=O)/C=C/c1ccc(F)cc1 | > 100 µM | > 100 µM | > 100 µM |  | > 100 µM | > 28.2 µM | > 100 µM | > 100 µM | > 100 µM |  | 5.97 µM |  | 6.3 µM | 5.71 µM |  | 7.7 µM | 1.94 µM | 3.98 µM | 3.84 µM | 6.15 µM |
| Cc1c(CCCl)c(=O)n2c([nH]c3ccccc32)c1C#N | 4.43 µM | 2.81 µM | 3.4 µM | > 10 µM | 4.41 µM |  | 1.93 µM | 3.21 µM | 2.02 µM | 4.46 µM |  |  |  |  |  |  |  |  |  |  |
| Cc1nc2ccc(C(F)(F)F)cc2nc1Nc1ccc(Cl)c(Cl)c1 | 28.7 µM | 23.4 µM |  | 51.9 µM | 37.5 µM | 13.7 µM | 22.2 µM | 30.5 µM | 13.5 µM | 30.2 µM |  |  |  |  |  |  |  |  |  |  |
| N#CC(C#N)=C(N)/C(C#N)=C\c1ccnc2ccccc12 | > 100 µM | > 100 µM | 49.5 µM | 58 µM | 66.3 µM | > 100 µM | 12.4 µM | 56.5 µM |  |  |  |  |  |  |  |  |  |  |  |  |
| C=CCn1c(C)nc2cc(Nc3nc(Nc4ccc5nc(C)n(CC=C)c5c4)c4ccccc4n3)ccc21 | 2 µM | 1.01 µM |  |  | 3.1 µM | 2.5 µM |  |  | 0.466 µM |  | 0.751 µM |  | 0.292 µM |  |  | 1.28 µM | 1.17 µM |  |  | 0.208 µM |
| CN(C)CCNc1nc2ccccc2c2c1c1c(n2Cc2ccccc2)-c2ccccc2C1=O | 27.8 µM | 20.7 µM | 49.5 µM | 20.9 µM | 28.6 µM |  | 25.2 µM | 37.2 µM | 26.1 µM | 28.9 µM | 12.3 µM | 10.9 µM | 6.43 µM | 12.1 µM | 2.85 µM | 12.2 µM |  | 4.67 µM | 18.1 µM | 11.8 µM |
| O=C1C(Br)=C[C@H]2C3C=CC(Br)(C3=O)[C@@H]12 (some centres undefined) | 29 µM | 34.3 µM | 29.4 µM |  | 43.6 µM | 26.2 µM | 22.8 µM | 92.5 µM |  | 28.4 µM |  |  |  |  |  |  |  |  |  |  |
| N#CCCc1nc2ccc(Br)cc2c(=O)n1CCO |  |  | > 100 µM |  | > 100 µM | > 100 µM |  | > 100 µM | > 100 µM | > 100 µM |  |  |  |  |  |  |  |  |  |  |
| CCC(=O)c1cn(C)c(=O)c2ccccc12 | > 100 µM | > 100 µM | > 100 µM | > 100 µM | > 100 µM | > 100 µM |  | > 100 µM | > 100 µM | > 100 µM |  |  |  |  |  |  |  |  |  |  |
| O=C(Nc1ccccc1)c1ccc(Cl)c([N+](=O)[O-])c1 |  |  | 54.3 µM |  |  |  |  | > 100 µM | > 100 µM | 32.4 µM |  |  |  |  |  |  |  |  |  |  |
| COc1cc(-c2nc3ccc(C)cc3[nH]2)ccc1OCC(=O)N=Nc1c(O)[nH]c2ccccc12 | 4.19 µM | 13.6 µM | 3.48 µM |  |  | 3.31 µM | 1.66 µM |  | 1.29 µM |  | 1.83 µM |  | 3.39 µM | 1.73 µM |  |  | 1.86 µM | 0.442 µM |  | 0.339 µM |
| CC(=O)CC1CCC(=O)CCC(=O)OC(CC(C)=O)CCC(=O)CCC(=O)O1 (centres undefined) | > 100 µM | > 100 µM | > 100 µM |  | > 100 µM | > 100 µM | > 100 µM | > 100 µM |  |  |  |  |  |  |  |  |  |  |  |  |
| CC(=O)NC(CCCCNC(=O)OCc1ccccc1)C(=O)NCc1ccccc1 (centres undefined) | > 100 µM | > 100 µM | > 100 µM |  | > 100 µM | > 100 µM | > 100 µM | > 100 µM | > 100 µM | > 100 µM |  |  |  |  |  |  |  |  |  |  |
| COc1cc(-c2cc(=O)c3cc4c(cc3[nH]2)OCO4)cc(OC)c1OC |  | > 100 µM | > 100 µM | > 100 µM | > 100 µM | > 100 µM | > 100 µM | 65.2 µM | > 100 µM | > 100 µM |  |  |  |  |  | 32.7 µM |  | 73.7 µM |  |  |
| CCN(CC)CCn1c2c3ccccc3ccc2c2oc(=O)c3ccccc3c21 | > 100 µM | > 100 µM | > 100 µM | > 100 µM | > 100 µM |  | > 100 µM | 80.3 µM | > 100 µM | > 100 µM |  |  |  |  |  |  |  |  |  |  |
